Experimental data: publication PMC12366332 (Applied and Environmental Microbiology, 2025)
Where two headings read alike, the source gives them in different places. Ends that are not written are not given here. Peptide text beside a SMILES is read from it. * marks the point of attachment. Hexanoyl = CCCCCC(=O)*

Columns and labels:
[1] = test system: horse erythrocytes; conditions: red cells of horse, 50 µM
[2] = test system: X. fastidiosa subsp. fastidiosa IVIA 5387.2
[3] = test system: tobacco leaves; conditions: 150 µM; after 48 h
[4] = test system: E. coli 0111:B4 LPS; assay type: biochemical, Escherichia coli

Row | Compound | Hemolytic activity (%) [1] [%] | Bactericidal activity Level ([2]; 50 µM) | Phytotoxicity: diameter of the lesion [3] [mm] | LPS neutralization Ratio (treatment/NTC) [4] | Bactericidal activity Reduction in viability (Log N0/N) ([2]; 50 µM) | further results
1 | CCCC(=O)NCCCC[C@H](NC(=O)[C@H](CCCCN)NC(=O)[C@H](CC(C)C)NC(=O)[C@@H](NC(=O)[C@H](CCCCN)NC(=O)[C@H](CCCCN)NC(=O)[C@H](Cc1ccccc1)NC(=O)[C@H](CC(C)C)NC(=O)[C@H](CCCCN)NC(=O)[C@H](CCCCN)NC(C)=O)[C@@H](C)CC)C(=O)N[C@@H](CC(C)C)C(N)=O [BP389, Ac-KKLFKKILKK(COC3H7)L-NH2] | 9 | High (key: Very High: very high bactericidal activity (>2.5 log); High: high bactericidal activity (between 2.0 and 2.5 log); Moderate: a moderate activity (between 1.5 and 2.0 log); Low: low active (<1.5 log)) | 7 | – | – | Bactericidal activity Reduction in viability (Log N0/N) ([2]; 3.1 µM): 0,02 Log N0/N; Bactericidal activity Reduction in viability (Log N0/N) ([2]; 12.5 µM): 1,51 Log N0/N
2 | CCCC(=O)NCCCC[C@H](NC(=O)[C@H](CCCCN)NC(=O)[C@H](CC(C)C)NC(=O)[C@@H](NC(=O)[C@H](CCCCN)NC(=O)[C@H](CCCCN)NC(=O)[C@@H](Cc1ccccc1)NC(=O)[C@H](CC(C)C)NC(=O)[C@H](CCCCN)NC(=O)[C@H](CCCCN)NC(C)=O)[C@@H](C)CC)C(=O)N[C@@H](CC(C)C)C(N)=O [BP475, Ac-KKLfKKILKK(COC3H7)L-NH2] | 0 | High (key: Very High: very high bactericidal activity (>2.5 log); High: high bactericidal activity (between 2.0 and 2.5 log); Moderate: a moderate activity (between 1.5 and 2.0 log); Low: low active (<1.5 log)) | 4 | – | – | Bactericidal activity Reduction in viability (Log N0/N) ([2]; 12.5 µM): 1,04 Log N0/N
3 | CCCCCCCCCCCC(=O)NCCCC[C@H](NC(=O)[C@H](CCCCN)NC(C)=O)C(=O)N[C@@H](CC(C)C)C(=O)N[C@@H](Cc1ccccc1)C(=O)N[C@@H](CCCCN)C(=O)N[C@@H](CCCCN)C(=O)N[C@H](C(=O)N[C@@H](CC(C)C)C(=O)N[C@@H](CCCCN)C(=O)N[C@@H](Cc1ccc(O)cc1)C(=O)N[C@@H](CC(C)C)C(N)=O)[C@@H](C)CC [BP393, Ac-KK(COC11H23)LFKKILKYL-NH2] | – | High (key: Very High: very high bactericidal activity (>2.5 log); High: high bactericidal activity (between 2.0 and 2.5 log); Moderate: a moderate activity (between 1.5 and 2.0 log); Low: low active (<1.5 log)) | 6 | – | – | EC50 ([2]; 3 h): 20.1 µM
4 | KKLFKKILKFL-NH2 [BP076] | – | – | – | 0,36 | 0,91 Log N0/N | –
5 | c(LLKKKWKKLQ) (cyclic) [BPC098W] | – | Low (key: Very High: very high bactericidal activity (>2.5 log); High: high bactericidal activity (between 2.0 and 2.5 log); Moderate: a moderate activity (between 1.5 and 2.0 log); Low: low active (<1.5 log)) | – | 0,83 | 0,78 Log N0/N | –
6 | Ac-LKLFKKILKVL-NH2 [BP022] | – | Moderate (key: Very High: very high bactericidal activity (>2.5 log); High: high bactericidal activity (between 2.0 and 2.5 log); Moderate: a moderate activity (between 1.5 and 2.0 log); Low: low active (<1.5 log)) | – | 0,61 | 1,87 Log N0/N | –
7 | KKLFKKILKYL-NH2 [BP100] | – | Moderate (key: Very High: very high bactericidal activity (>2.5 log); High: high bactericidal activity (between 2.0 and 2.5 log); Moderate: a moderate activity (between 1.5 and 2.0 log); Low: low active (<1.5 log)) | – | 0,34 | 1,92 Log N0/N | –
8 | KKlFKKILKYL-NH2 [BP144] | – | – | – | 1,07 | 0,68 Log N0/N | –
9 | CCCC(=O)N[C@@H](CCCCN)C(=O)N[C@@H](CCCCN)C(=O)N[C@@H](CC(C)C)C(=O)N[C@H](Cc1ccccc1)C(=O)N[C@@H](CCCCN)C(=O)N[C@@H](CCCCN)C(=O)N[C@H](C(=O)N[C@@H](CC(C)C)C(=O)N[C@@H](CCCCN)C(=O)N[C@@H](Cc1ccc(O)cc1)C(=O)N[C@@H](CC(C)C)C(N)=O)[C@@H](C)CC [BP485, C3H7CO-KKLfKKILKYL-NH2] | 3 | Moderate (key: Very High: very high bactericidal activity (>2.5 log); High: high bactericidal activity (between 2.0 and 2.5 log); Moderate: a moderate activity (between 1.5 and 2.0 log); Low: low active (<1.5 log)) | 3 | – | 1,92 Log N0/N | Bactericidal activity Reduction in viability (Log N0/N) ([2]; 12.5 µM): 0,49 Log N0/N
10 | KKLFKKILKVL-NH2 [BP015] | – | – | – | 1,10 | 1,13 Log N0/N | –
11 | CC[C@H](C)[C@H](NC(=O)CN)C(=O)NCC(=O)N[C@@H](C)C(=O)N[C@H](C(=O)N[C@@H](CC(C)C)C(=O)N[C@@H](CCCCN)C(=O)N[C@H](C(=O)N[C@@H](CC(C)C)C(=O)N[C@H](C(=O)N[C@H](C(=O)NCC(=O)N[C@@H](CC(C)C)C(=O)N1CCC[C@H]1C(=O)N[C@@H](C)C(=O)N[C@@H](CC(C)C)C(=O)N[C@H](C(=O)N[C@@H](CO)C(=O)N[C@@H](Cc1c[nH]c2ccccc12)C(=O)N[C@H](C(=O)N[C@@H](CCCCN)C(=O)N[C@@H](CCCNC(=N)N)C(=O)N[C@@H](CCCCN)C(=O)N[C@@H](CCCNC(=N)N)C(=O)N[C@@H](CCC(N)=O)C(=O)N[C@@H](CCC(N)=O)C(N)=O)[C@@H](C)CC)[C@@H](C)CC)[C@@H](C)O)[C@@H](C)O)C(C)C)C(C)C [Melittin, reference compound] | – | – | 10 | – | – | –
12 | KKVVFWVKFk-NH2 [BP442] | – | Low (key: Very High: very high bactericidal activity (>2.5 log); High: high bactericidal activity (between 2.0 and 2.5 log); Moderate: a moderate activity (between 1.5 and 2.0 log); Low: low active (<1.5 log)) | – | 0,76 | 1,09 Log N0/N | –
13 | KKLfKKILKYL-NH2 [BP143] | – | – | – | 0,70 | 0,89 Log N0/N | –
14 | RKVRGPP-NH2 [Lf(28-34), RKVRGPP-NH2, reference compound] | 1 | – | 0 | – | – | –
15 | CCCCCCCCCCCC(=O)NCCCC[C@H](NC(=O)[C@H](CCCCN)NC(=O)[C@H](CCCCN)NC(C)=O)C(=O)N[C@H](Cc1ccccc1)C(=O)N[C@@H](CCCCN)C(=O)N[C@@H](CCCCN)C(=O)N[C@H](C(=O)N[C@@H](CC(C)C)C(=O)N[C@@H](CCCCN)C(=O)N[C@@H](Cc1ccc(O)cc1)C(=O)N[C@@H](CC(C)C)C(N)=O)[C@@H](C)CC [BP500, Ac-KKK(COC11H23)fKKILKYL-NH2] | 99 | Low (key: Very High: very high bactericidal activity (>2.5 log); High: high bactericidal activity (between 2.0 and 2.5 log); Moderate: a moderate activity (between 1.5 and 2.0 log); Low: low active (<1.5 log)) | 8 | – | 1,37 Log N0/N | –
16 | FKLFKKILKVL-NH2 [BP013] | – | – | – | 1,13 | 1,03 Log N0/N | –
17 | CF-KKLfKK(COC3H7)ILKYL-NH2 [BP473-CF] | – | – | – | – | – | Bactericidal activity Reduction in viability (Log N0/N) [2]: 0,91 Log N0/N
18 | CCCCCC(=O)NCCCC[C@H](NC(=O)[C@@H](NC(=O)[C@H](CCCCN)NC(=O)[C@H](CCCCN)NC(=O)[C@H](Cc1ccccc1)NC(=O)[C@H](CC(C)C)NC(=O)[C@H](CCCCN)NC(=O)[C@H](CCCCN)NC(C)=O)[C@@H](C)CC)C(=O)N[C@@H](CCCCN)C(=O)N[C@@H](Cc1ccc(O)cc1)C(=O)N[C@@H](CC(C)C)C(N)=O [BP375, Ac-KKLFKKIK(COC5H11)KYL-NH2] (Ac-KKLFKKIK(Hexanoyl)KYL-NH2) | 23 | – | 10 | – | 1,37 Log N0/N | –
19 | CCCCCCCCCCCC(=O)NCCCC[C@H](NC(=O)[C@@H](NC(=O)[C@H](CCCCN)NC(=O)[C@H](CCCCN)NC(=O)[C@@H](Cc1ccccc1)NC(=O)[C@H](CC(C)C)NC(=O)[C@H](CCCCN)NC(=O)[C@H](CCCCN)NC(C)=O)[C@@H](C)CC)C(=O)N[C@@H](CCCCN)C(=O)N[C@@H](Cc1ccc(O)cc1)C(=O)N[C@@H](CC(C)C)C(N)=O [BP490, Ac-KKLfKKIK(COC11H23)KYL-NH2] | 100 | High (key: Very High: very high bactericidal activity (>2.5 log); High: high bactericidal activity (between 2.0 and 2.5 log); Moderate: a moderate activity (between 1.5 and 2.0 log); Low: low active (<1.5 log)) | 6 | – | – | Bactericidal activity Reduction in viability (Log N0/N) ([2]; 3.1 µM): 1,28 Log N0/N
20 | CCCC(=O)NCCCC[C@H](NC(=O)[C@@H](NC(=O)[C@H](CCCCN)NC(=O)[C@H](CCCCN)NC(=O)[C@H](Cc1ccccc1)NC(=O)[C@H](CC(C)C)NC(=O)[C@H](CCCCN)NC(=O)[C@H](CCCCN)NC(C)=O)[C@@H](C)CC)C(=O)N[C@@H](CCCCN)C(=O)N[C@@H](Cc1ccc(O)cc1)C(=O)N[C@@H](CC(C)C)C(N)=O [BP387, Ac‐KKLFKKIK(COC3H7)KYL‐NH2] | 4 | Moderate (key: Very High: very high bactericidal activity (>2.5 log); High: high bactericidal activity (between 2.0 and 2.5 log); Moderate: a moderate activity (between 1.5 and 2.0 log); Low: low active (<1.5 log)) | 8 | – | 1,96 Log N0/N | Bactericidal activity Reduction in viability (Log N0/N) ([2]; 12.5 µM): 0,83 Log N0/N
21 | KKLFKKILKKL-NH2 [BP016] | – | – | – | 1,13 | 0,00 Log N0/N | –
22 | KkLFKKILKYL-NH2 [BP145] | – | – | – | 0,76 | 1,08 Log N0/N | –
23 | KKLFKkILKYL-NH2 [BP146] | – | – | – | 0,73 | 1,25 Log N0/N | –
